Data on 13 compounds can be found in BindingDB's records for doi:10.1021/jm00150a026 (1985).

Molecules are shown by their SMILES.

Sequence of Dihydrofolate reductase (P0ABQ4 whole entry, looked up): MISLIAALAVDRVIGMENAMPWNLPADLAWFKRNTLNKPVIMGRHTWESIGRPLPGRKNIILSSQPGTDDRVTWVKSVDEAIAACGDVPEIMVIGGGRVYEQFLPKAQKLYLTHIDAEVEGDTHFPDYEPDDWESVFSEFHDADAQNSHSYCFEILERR

The test concerns the target Dihydrofolate reductase (Escherichia coli, UniProt P0ABQ4). Briefly: Inhibition of Escherichia coli dihydrofolate reductase.
Turning to `CC1(C)N=C(N)N=C(N)N1c1cccc(COc2cccc(CO)c2)c1` [{3-[3-(4,6-Diamino-2,2-dimethyl-2H-[1,3,5]triazin-1-yl)-benzyloxy]-phenyl}-methanol], affinity was put at a Ki of 646 nM. As for `CC1(C)N=C(N)N=C(N)N1c1cccc(COc2cccc(NC(N)=S)c2)c1`, the figure is 676 nM; as for `Cc1cccc(OCc2cccc(N3C(N)=NC(N)=NC3(C)C)c2)c1` [6,6-Dimethyl-1-(3-m-tolyloxymethyl-phenyl)-1,6-dihydro-[1,3,5]triazine-2,4-diamine], 537 nM; as for `CCCCCCCCCCCCCCOc1cccc(N2C(N)=NC(N)=NC2(C)C)c1` [6,6-Dimethyl-1-(3-tetradecyloxy-phenyl)-1,6-dihydro-[1,3,5]triazine-2,4-diamine], 1410 nM. Take `CC1(C)N=C(N)N=C(N)N1c1cccc(COc2cccc(Cl)c2)c1` [1-[3-(3-Chloro-phenoxymethyl)-phenyl]-6,6-dimethyl-1,6-dihydro-[1,3,5]triazine-2,4-diamine]: the Ki amounted to 977 nM. Take `CCc1cccc(OCc2cccc(N3C(N)=NC(N)=NC3(C)C)c2)c1` [1-[3-(3-Ethyl-phenoxymethyl)-phenyl]-6,6-dimethyl-1,6-dihydro-[1,3,5]triazine-2,4-diamine]: the Ki is 1120 nM. The same measure for `CCCCCCCCCCCOc1cccc(N2C(N)=NC(N)=NC2(C)C)c1` [6,6-Dimethyl-1-(3-undecyloxy-phenyl)-1,6-dihydro-[1,3,5]triazine-2,4-diamine]: 646 nM; for `CC1(C)N=C(N)N=C(N)N1c1cccc(COc2cccc(C#N)c2)c1` [3-[3-(4,6-Diamino-2,2-dimethyl-2H-[1,3,5]triazin-1-yl)-benzyloxy]-benzonitrile]: 891 nM. On to `CC1(C)N=C(N)N=C(N)N1c1cccc(COc2cccc(NC(N)=O)c2)c1` [{3-[3-(4,6-Diamino-2,2-dimethyl-2H-[1,3,5]triazin-1-yl)-benzyloxy]-phenyl}-urea], for which the Ki came to 1230 nM. As for `CCCCCCCCCCCCOc1cccc(N2C(N)=NC(N)=NC2(C)C)c1`, the figure is 1320 nM; as for `CC(C)(C)c1cccc(OCc2cccc(N3C(N)=NC(N)=NC3(C)C)c2)c1`, 871 nM; as for `CC1(C)N=C(N)N=C(N)N1c1cccc(OCc2ccc(Cl)c(Cl)c2)c1`, 708 nM. As for `COc1cccc(OCc2cccc(N3C(N)=NC(N)=NC3(C)C)c2)c1` [1-[3-(3-Methoxy-phenoxymethyl)-phenyl]-6,6-dimethyl-1,6-dihydro-[1,3,5]triazine-2,4-diamine], the figure is 955 nM.
